Source: PubChem BioAssay AID328 (DTP/NCI, 2004)
Inconclusive results and toxic doses are left out. The calls were made as follows: active = survival T/C of 150% or more; inactive = T/C below 125% in these data.

Tested on: BDF1 mice, P388 leukemia ip, median survival T/C
Experiment: NCI In Vivo Anticancer Drug Screen. Data for tumor model P388 Leukemia (intraperitoneal) in B6D2F1 (BDF1) mice
Details: endpoint: median survival time, higher = longer survival
How it was run: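 Each value expresses how treatment altered survival: treated-mouse outcome over vehicle-mouse outcome, both groups bearing the transplanted tumour.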

[1] = dose: 50.0 mg/kg/injection, schedule: Q01DX009 (ip), vehicle: saline

Measured: T/C

CC1C(=O)CCC2(C)C1CCC1C3CCC(O)C3(C)CCC12 (centres undefined)
inactive: dose: 100.0 mg/kg/injection, schedule: Q04DX003 (ip), vehicle: saline with Tween-80 95 % of control | dose: 200.0 mg/kg/injection, schedule: Q04DX003 (ip), vehicle: saline with Tween-80 100 % of control | dose: 400.0 mg/kg/injection, schedule: Q04DX003 (ip), vehicle: saline with Tween-80 91 % of control

O=NN(CCF)C(=O)NC1CCCCC1
active: dose: 6.25 mg/kg/injection, schedule: Q01DX009 (ip), vehicle: saline with Tween-80 217 % of control | dose: 12.5 mg/kg/injection, schedule: Q01DX009 (ip), vehicle: saline with Tween-80 260 % of control | dose: 16.5 mg/kg/injection, schedule: Q04DX003 (ip), vehicle: saline with Tween-80 272 % of control
inactive: dose: 1.0 mg/kg/injection, schedule: Q04DX003 (ip), vehicle: saline with Tween-80 90 % of control | dose: 2.0 mg/kg/injection, schedule: Q04DX003 (ip), vehicle: saline with Tween-80 105 % of control | dose: 4.0 mg/kg/injection, schedule: Q04DX003 (ip), vehicle: saline with Tween-80 120 % of control | dose: 25.0 mg/kg/injection, schedule: Q01DX009 (ip), vehicle: saline with Tween-80 121 % of control | dose: 25.0 mg/kg/injection, schedule: Q04DX003 (ip), vehicle: saline with Tween-80 95 % of control | dose: 37.5 mg/kg/injection, schedule: Q04DX003 (ip), vehicle: saline with Tween-80 95 % of control

N=c1scc(CC(=O)O)n1N
inactive: [1] 92 % of control | dose: 100.0 mg/kg/injection, schedule: Q01DX009 (ip), vehicle: saline 108 % of control | dose: 200.0 mg/kg/injection, schedule: Q01DX009 (ip), vehicle: saline 92 % of control

CC(C)(C)C(O)CC(C)(O)C(C)(C)C (centres undefined)
inactive: dose: 6.3 mg/kg/injection, schedule: Q01DX009 (ip), vehicle: Klucel (hydroxypropylcellulose) (HPC) 101 % of control | dose: 12.5 mg/kg/injection, schedule: Q01DX009 (ip), vehicle: Klucel (hydroxypropylcellulose) (HPC) 107 % of control | dose: 25.0 mg/kg/injection, schedule: Q01DX009 (ip), vehicle: Klucel (hydroxypropylcellulose) (HPC) 108 % of control

O=C(/C=C/C(=O)Oc1ccccc1)Oc1ccccc1
inactive: dose: 100.0 mg/kg/injection, schedule: Q01DX009 (ip), vehicle: Klucel (hydroxypropylcellulose) (HPC) 90 % of control | dose: 200.0 mg/kg/injection, schedule: Q01DX009 (ip), vehicle: Klucel (hydroxypropylcellulose) (HPC) 109 % of control | dose: 400.0 mg/kg/injection, schedule: Q01DX009 (ip), vehicle: Klucel (hydroxypropylcellulose) (HPC) 90 % of control

O=C1c2ccccc2C(=O)c2c(O)c(N3CCOCC3)cc(O)c21
inactive: dose: 1.0 mg/kg/injection, schedule: Q01DX009 (ip), vehicle: water 121 % of control | dose: 2.0 mg/kg/injection, schedule: Q01DX009 (ip), vehicle: water 104 % of control | dose: 4.0 mg/kg/injection, schedule: Q01DX009 (ip), vehicle: water 104 % of control | dose: 8.0 mg/kg/injection, schedule: Q01DX009 (ip), vehicle: water 89 % of control | dose: 16.0 mg/kg/injection, schedule: Q01DX009 (ip), vehicle: water 111 % of control | dose: 32.0 mg/kg/injection, schedule: Q01DX009 (ip), vehicle: water 113 % of control | [1] 90 % of control

CC(C)CCCCCCCCCCCCC(=O)NCC(=O)NC1C(O)C(O)C(Nc2ncnc3nc[nH]c23)OC1C(O)CO (centres undefined)
active: dose: 0.09 mg/kg/injection, schedule: Q01DX010 (ip), vehicle: carboxymethylcellulose (CMC) 160 % of control | dose: 0.18 mg/kg/injection, schedule: Q01DX010 (ip), vehicle: carboxymethylcellulose (CMC) 180 % of control | dose: 0.37 mg/kg/injection, schedule: Q01DX010 (ip), vehicle: carboxymethylcellulose (CMC) 175 % of control | dose: 0.37 mg/kg/injection, schedule: Q01DX010 (ip), vehicle: steriod suspending solution 165 % of control
inactive: dose: 0.13 mg/kg/injection, schedule: Q01DX010 (ip), vehicle: steriod suspending solution 90 % of control

O=[N+]([O-])C(c1ccccc1)C(c1ccccc1)C(c1ccccc1)[N+](=O)[O-] (centres undefined)
inactive: dose: 50.0 mg/kg/injection, schedule: Q01DX005 (ip), vehicle: saline with Tween-80 103 % of control | dose: 100.0 mg/kg/injection, schedule: Q01DX005 (ip), vehicle: saline with Tween-80 87 % of control | dose: 200.0 mg/kg/injection, schedule: Q01DX005 (ip), vehicle: saline with Tween-80 91 % of control

Clc1ccc(Oc2ccc(N3C=Nc4ccc(Oc5ccc(Cl)cc5)cc4C3)cc2)cc1
inactive: dose: 100.0 mg/kg/injection, schedule: Q04DX003 (ip), vehicle: alcohol 100 % of control | dose: 200.0 mg/kg/injection, schedule: Q04DX003 (ip), vehicle: alcohol 100 % of control | dose: 400.0 mg/kg/injection, schedule: Q04DX003 (ip), vehicle: alcohol 95 % of control
